From publication PMC3199943, “Screening the MayBridge Rule of 3 Fragment Library for Compounds That Interact with the Trypanosoma brucei myo-Inositol-3-Phosphate Synthase and/or Show Trypanocidal Activity” (Molecular Biology International, 2011)

system: HeLa cells; test: cells; settings: Homo sapiens, HeLa, 65 h, read-out: HeLa Cells Alamar Blue
Procedure: (§1) Cytotoxic effects against HeLa and A549 cells were determined in a similar manner. Briefly, the cells were cultured in DMEM supplemented with 10% FCS and 2 mM L-Glutamine. Cells were plated at initial cell concentration of 2 × 10^4 cells/well and incubated with the compounds for ~65 hours prior to addition of Alamar Blue solution for a further 5 hours.

| Structure (SMILES) | viability at 500 µM |
| --- | --- |
| COC(=O)c1ccccc1F [compound 220, methyl 2‐fluorobenzoate] | 108 ± 17.6% |
| CCCCc1nc(CO)c[nH]1 [compound 223, (2‐butyl‐1H‐imidazol‐4‐yl)methanol] | 105 ± 13.7% |
| NC(=O)c1ccccc1Cl [compound 230, 2‐chlorobenzamide] | 104 ± 8.8% |
| CNCc1ccc(Cl)cc1 [compound 231, N‐(4‐chlorobenzyl)‐N‐methylamine] | 113 ± 3.7% |
| Cc1cc(N)c(N)cc1Cl [compound 240, 4-chloro-5-methylbenzene-1,2-diamine] | 12.1 ± 8.7% |
| Cc1nc(CC(=O)O)cs1 [compound 243, 2‐(2‐methyl‐1,3‐thiazol‐4‐yl)acetic acid] | 99.5 ± 1.1% |
| CCOC(=O)C1CCNCC1 [compound 245, ethyl piperidine‐4‐carboxylate] | 97.8 ± 3.2% |
| COc1ccc(Cl)cc1N [compound 246, 5‐chloro‐2‐methoxyaniline] | 113 ± 16.7% |
| c1ccc(Cn2cccc2)nc1 [compound 249, 2‐(1H‐pyrrol‐1‐ylmethyl)pyridine] | 93.1 ± 19.9% |
| Nc1ccc(-n2cccc2)cc1 [compound 250, 4‐(1H‐pyrrol‐1‐yl)aniline] | 107 ± 16.6% |
| Clc1cn2ccsc2n1 [compound 253, 6‐chloroimidazo[2,1‐b][1,3]thiazole] | 82.1% |
| OCc1ccc2ncccc2c1 [compound 255, 6‐quinolinylmethanol] | 89.6 ± 6.8% |
| Cc1ccc(-c2cnco2)cc1 [compound 259, 5‐(4‐methylphenyl)‐1,3‐oxazole] | 88.4 ± 2.5% |
| Nc1ccccc1-n1cccn1 [compound 260, 2‐(1H‐pyrazol‐1‐yl)aniline] | 98.1 ± 5.6% |
| NCc1ccc(F)c(Cl)c1 [compound 264, 3‐chloro‐4‐fluorobenzylamine] | 47.5 ± 13.5% |
| Cc1ccc2oc(=O)ccc2c1 [compound 265, 6‐methyl‐2H‐chromen‐2‐one] | 95.8 ± 17.2% |
| Oc1ccc(-n2ccnc2)cc1 [compound 266, 4‐(1H‐imidazol‐1‐yl)phenol] | 83 ± 19.8% |

| Structure (SMILES) | viability at 500 µM |
| --- | --- |
| Nc1cc(F)c(Cl)cc1N [compound 269, 4-chloro-5-fluorobenzene-1,2-diamine] | 23.4 ± 14.8% |
| Nc1ccc(C(F)(F)F)cc1 [compound 270, 4‐(trifluoromethyl)aniline] | 21.8 ± 14.5% |
| COC(=O)c1ccccc1C#N [compound 274, methyl 2‐cyanobenzoate] | 91 ± 19.6% |
| O=C(O)c1cc2ccccc2[nH]1 [compound 275, 1H‐indole‐2‐carboxylic acid] | 89.7 ± 16.4% |
| Cn1ccc2ccc(CO)cc21 [compound 278, (1‐methyl‐1H‐indol‐6‐yl)methanol] | 18.2 ± 10.4% |
| Nc1cc(Cl)cc(Cl)c1 [compound 282, 3,5‐dichloroaniline] | 86.4 ± 8.5% |
| Nc1ccc(C(F)(F)F)cn1 [compound 283, 5‐(trifluoromethyl)pyridin‐2‐amine] | 92.7 ± 5.3% |
| OCCc1coc2ccccc12 [compound 284, 2‐benzo[b]furan‐3‐ylethanol] | 58.7 ± 17.4% |
| Cn1nc(CO)c2ccccc21 [compound 286, (1‐methyl‐1H‐indazol‐3‐yl)methanol] | 90.9 ± 3.1% |
| Nc1ccccc1N1CCCC1 [compound 289, 2‐pyrrolidin‐1‐ylaniline] | 11.4 ± 9.5% |
| O=C(O)c1sccc1Cl [compound 290, 3‐chlorothiophene‐2‐carboxylic acid] | 86.9 ± 14.3% |
| NCCc1cccc2c1OCC2 [compound 293, 2,3‐Dihydrobenzo[b]furan‐7‐ethylamine] | 10.8 ± 0.1% |
| NCc1ccc2sccc2c1 [compound 294, 1‐benzothiophen‐5‐ylmethylamine] | 98.5 ± 13.1% |
| OCC1CCc2ccccc2O1 (stereo not shown) [compound 299, 3,4‐dihydro‐2H‐chromen‐2‐ylmethanol] | 85.1 ± 14.7% |
| OCC1COc2ccccc2C1 (stereo not shown) [compound 300, 3,4‐dihydro‐2H‐chromen‐3‐ylmethanol] | 90 ± 16.3% |
| Cc1nc2ccc(N)cc2s1 [compound 302, 2‐methyl‐1,3‐benzothiazol‐6‐ylamine] | 71.9 ± 12.4% |
| COC(=O)c1ccc(N)c(C)c1 [compound 304, methyl 4‐amino‐3‐methylbenzoate] | 100 ± 8.9% |

same assay, conditions: Homo sapiens, HeLa, 65 h, read-out: HeLa Cells Alamar Blue, Supplementary Table 1; compound 0.5 mM; percentage of controls; mean ± SD (n=3) or SE (n=2)

| Structure (SMILES) | viability at 500 µM |
| --- | --- |
| Oc1ncnc2cccc(F)c12 [compound 296, 5‐fluoroquinazolin‐4‐ol] | 92.7 ± 1.9% |

same assay, conditions: Homo sapiens, HeLa, read-out: HeLa ED50

| Structure (SMILES) | CC50 |
| --- | --- |
| Cc1cc(N)c(N)cc1Cl [compound 240, 4-chloro-5-methylbenzene-1,2-diamine] | 454 ± 55 µM |
| Nc1ccc(-n2cccc2)cc1 [compound 250, 4‐(1H‐pyrrol‐1‐yl)aniline] | 1400 ± 100 µM |
| Nc1cc(F)c(Cl)cc1N [compound 269, 4-chloro-5-fluorobenzene-1,2-diamine] | 431 ± 53 µM |
| Nc1ccc(C(F)(F)F)cc1 [compound 270, 4‐(trifluoromethyl)aniline] | 206 ± 13 µM |

same assay, conditions: Supplementary Table 1; compound 0.5 mM; percentage of controls; mean ± SD (n=3) or SE (n=2)

| Structure (SMILES) | HeLa Cells Alamar Blue |
| --- | --- |
| CC12CCC(O)(CC1)CC2=O [compound 222, 4‐hydroxy‐1‐methylbicyclo[2.2.2]octan‐2‐one] | 101.8 ± 5.9 percentage of controls |
| CC1(C)CC(=O)CC(C)(C)N1 [compound 228, 2,2,6,6‐tetramethyltetrahydro‐4(1H)‐pyridinone] | 101.3 ± 5.4 percentage of controls |
| Cc1nc2ccccn2c1CO [compound 287, (2‐methylimidazo[1,2‐a]pyridin‐3‐yl)methanol] | 76.2 ± 14 percentage of controls |
| FC(F)(F)C1=NCCNC=C1 [compound 295, 5‐(trifluoromethyl)‐2,3‐dihydro‐1H‐1,4‐diazepine] | 75.2 ± 18.7 percentage of controls |
| O=C(O)c1cccc2c1OCC2 [compound 297, 2,3‐dihydrobenzo[b]furan‐7‐carboxylic acid] | 78.8 ± 7.5 percentage of controls |
| NCc1ccc2c(c1)OCCO2 [compound 306, 2,3‐dihydro‐1,4‐benzodioxin‐6‐ylmethylamine] | 109.2 ± 5.6 percentage of controls |
| Nc1ccc2c(c1)OCCCO2 [compound 308, 3,4‐dihydro‐2H‐1,5‐benzodioxepin‐7‐amine] | 98.7 ± 6.1 percentage of controls |

system: A549 cells; test: Cytotoxicity against A549 cells, Alamar Blue; assay type: cell-based; settings: Homo sapiens, A549, 65 h; Supplementary Table 1; compound 0.5 mM; percentage of controls (n=1)
Procedure: as §1

| Structure (SMILES) | viability at 500 µM |
| --- | --- |
| COC(=O)c1ccccc1F [compound 220, methyl 2‐fluorobenzoate] | 99.5% |
| CCCCc1nc(CO)c[nH]1 [compound 223, (2‐butyl‐1H‐imidazol‐4‐yl)methanol] | 139% |
| NC(=O)c1ccccc1Cl [compound 230, 2‐chlorobenzamide] | 92.9% |
| CNCc1ccc(Cl)cc1 [compound 231, N‐(4‐chlorobenzyl)‐N‐methylamine] | 107% |
| Cc1cc(N)c(N)cc1Cl [compound 240, 4-chloro-5-methylbenzene-1,2-diamine] | 14.7% |
| Cc1nc(CC(=O)O)cs1 [compound 243, 2‐(2‐methyl‐1,3‐thiazol‐4‐yl)acetic acid] | 113% |
| CCOC(=O)C1CCNCC1 [compound 245, ethyl piperidine‐4‐carboxylate] | 99% |
| COc1ccc(Cl)cc1N [compound 246, 5‐chloro‐2‐methoxyaniline] | 113% |
| c1ccc(Cn2cccc2)nc1 [compound 249, 2‐(1H‐pyrrol‐1‐ylmethyl)pyridine] | 83.6% |
| Nc1ccc(-n2cccc2)cc1 [compound 250, 4‐(1H‐pyrrol‐1‐yl)aniline] | 89.1% |
| Clc1cn2ccsc2n1 [compound 253, 6‐chloroimidazo[2,1‐b][1,3]thiazole] | 85.1% |
| OCc1ccc2ncccc2c1 [compound 255, 6‐quinolinylmethanol] | 84% |
| Cc1ccc(-c2cnco2)cc1 [compound 259, 5‐(4‐methylphenyl)‐1,3‐oxazole] | 88.1% |
| Nc1ccccc1-n1cccn1 [compound 260, 2‐(1H‐pyrazol‐1‐yl)aniline] | 97.3% |
| NCc1ccc(F)c(Cl)c1 [compound 264, 3‐chloro‐4‐fluorobenzylamine] | 88.4% |
| Cc1ccc2oc(=O)ccc2c1 [compound 265, 6‐methyl‐2H‐chromen‐2‐one] | 63.8% |
| Oc1ccc(-n2ccnc2)cc1 [compound 266, 4‐(1H‐imidazol‐1‐yl)phenol] | 108% |
| Nc1cc(F)c(Cl)cc1N [compound 269, 4-chloro-5-fluorobenzene-1,2-diamine] | 50.4% |

| Structure (SMILES) | viability at 500 µM |
| --- | --- |
| Nc1ccc(C(F)(F)F)cc1 [compound 270, 4‐(trifluoromethyl)aniline] | 104% |
| COC(=O)c1ccccc1C#N [compound 274, methyl 2‐cyanobenzoate] | 64% |
| O=C(O)c1cc2ccccc2[nH]1 [compound 275, 1H‐indole‐2‐carboxylic acid] | 67.3% |
| Cn1ccc2ccc(CO)cc21 [compound 278, (1‐methyl‐1H‐indol‐6‐yl)methanol] | 47.8% |
| Nc1cc(Cl)cc(Cl)c1 [compound 282, 3,5‐dichloroaniline] | 66.5% |
| Nc1ccc(C(F)(F)F)cn1 [compound 283, 5‐(trifluoromethyl)pyridin‐2‐amine] | 63.6% |
| OCCc1coc2ccccc12 [compound 284, 2‐benzo[b]furan‐3‐ylethanol] | 63.3% |
| Cn1nc(CO)c2ccccc21 [compound 286, (1‐methyl‐1H‐indazol‐3‐yl)methanol] | 73.2% |
| Nc1ccccc1N1CCCC1 [compound 289, 2‐pyrrolidin‐1‐ylaniline] | 23.8% |
| O=C(O)c1sccc1Cl [compound 290, 3‐chlorothiophene‐2‐carboxylic acid] | 117% |
| NCCc1cccc2c1OCC2 [compound 293, 2,3‐Dihydrobenzo[b]furan‐7‐ethylamine] | 19.8% |
| NCc1ccc2sccc2c1 [compound 294, 1‐benzothiophen‐5‐ylmethylamine] | 70.6% |
| Oc1ncnc2cccc(F)c12 [compound 296, 5‐fluoroquinazolin‐4‐ol] | 63.7% |
| OCC1CCc2ccccc2O1 (stereo not shown) [compound 299, 3,4‐dihydro‐2H‐chromen‐2‐ylmethanol] | 80.3% |
| OCC1COc2ccccc2C1 (stereo not shown) [compound 300, 3,4‐dihydro‐2H‐chromen‐3‐ylmethanol] | 113% |
| Cc1nc2ccc(N)cc2s1 [compound 302, 2‐methyl‐1,3‐benzothiazol‐6‐ylamine] | 62.3% |
| COC(=O)c1ccc(N)c(C)c1 [compound 304, methyl 4‐amino‐3‐methylbenzoate] | 63.4% |

same assay, conditions: Supplementary Table 1; compound 0.5 mM; percentage of controls (n=1)

| Structure (SMILES) | A549 Cells Alamar Blue |
| --- | --- |
| CC12CCC(O)(CC1)CC2=O [compound 222, 4‐hydroxy‐1‐methylbicyclo[2.2.2]octan‐2‐one] | 82.3 percentage of controls |
| CC1(C)CC(=O)CC(C)(C)N1 [compound 228, 2,2,6,6‐tetramethyltetrahydro‐4(1H)‐pyridinone] | 61.9 percentage of controls |
| Cc1nc2ccccn2c1CO [compound 287, (2‐methylimidazo[1,2‐a]pyridin‐3‐yl)methanol] | 79.7 percentage of controls |
| FC(F)(F)C1=NCCNC=C1 [compound 295, 5‐(trifluoromethyl)‐2,3‐dihydro‐1H‐1,4‐diazepine] | 72.1 percentage of controls |
| O=C(O)c1cccc2c1OCC2 [compound 297, 2,3‐dihydrobenzo[b]furan‐7‐carboxylic acid] | 74.9 percentage of controls |
| NCc1ccc2c(c1)OCCO2 [compound 306, 2,3‐dihydro‐1,4‐benzodioxin‐6‐ylmethylamine] | 72.7 percentage of controls |
| Nc1ccc2c(c1)OCCCO2 [compound 308, 3,4‐dihydro‐2H‐1,5‐benzodioxepin‐7‐amine] | 82.8 percentage of controls |
